Values after ≈ are worked out from the molar mass of the structure shown. Values joined by “and” are separate entries in the source; they are usually repeats but may differ in a detail not shown here. Equal entries are not always repeated.
Key:
[1] = test system: methicillin-resistant Staphylococcus aureus (MRSA); assay: Minimum inhibitory concentration (MIC) against MRSA clinical isolate; type: cell-based; conditions: clinical isolate of MRSA from the Massachusetts General Hospital
Excerpt: Compounds of this invention can have useful activity against a variety of pathogenic microorganisms. The in vitro activity of compounds of this invention can be assessed by standard testing procedures such as the determination of minimum inhibitory concentration (MIC) by agar dilution as described in “Approved Standard. Methods for Dilution Antimicrobial Susceptibility Tests for Bacteria That Grow Aerobically”, 3rd. ed., published 1993 by the National Committee for Clinical Laboratory Standards, Villanova, Pa., USA. Minimum inhibitory concentration (MIC) refers to the lowest concentration of drug (μg/mL) that inhibits visible growth of the organism. Lower MIC values indicate a higher antibacterial activity. Typically, compounds of present invention have useful potency against Gram-positive or Gram-negative pathogens with MIC values of ≦16 μg/mL. The useful activity of compounds of the present invention against a clinical isolate of methicillin-resistant Staphylococcus aureus (MRSA; from the Massachusetts General Hospital, USA) is illustrated by the MIC data of Table 1.

[2] = target: T1, Human monoamine oxidase (MOA) A type enzyme (Homo sapiens, UniProt P21397); assay: MAO-Glo monoamine oxidase A enzyme inhibition assay; type: biochemical; conditions: human MAO A enzyme (BD Gentest), MAO-Glo kit; Linezolid value of side-by-side test in parenthesis
T1 construct: purchased BD Gentest
T1 sequence (P21397 1-527): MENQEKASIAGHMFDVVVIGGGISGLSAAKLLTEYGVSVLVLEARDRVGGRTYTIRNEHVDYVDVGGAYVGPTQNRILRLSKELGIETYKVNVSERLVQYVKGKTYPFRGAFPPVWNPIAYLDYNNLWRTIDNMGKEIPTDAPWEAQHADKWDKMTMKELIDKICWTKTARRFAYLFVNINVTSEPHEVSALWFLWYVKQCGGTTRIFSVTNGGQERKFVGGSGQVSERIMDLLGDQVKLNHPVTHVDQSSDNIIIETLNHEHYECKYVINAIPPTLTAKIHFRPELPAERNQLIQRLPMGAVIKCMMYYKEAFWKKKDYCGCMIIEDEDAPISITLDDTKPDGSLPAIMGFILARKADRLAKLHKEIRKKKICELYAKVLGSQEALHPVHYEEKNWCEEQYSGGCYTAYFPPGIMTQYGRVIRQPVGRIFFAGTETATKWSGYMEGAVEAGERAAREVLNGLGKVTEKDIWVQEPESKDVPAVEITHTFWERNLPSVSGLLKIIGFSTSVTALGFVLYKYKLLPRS
Procedure: Human monoamine oxidase (MOA) A type enzyme inhibition activity for select compounds was measured using a commercial MAO assay kit MAO-Glo™ from Promega Co. (USA). The assay was performed as described in the company's technical bulletin “MAO-Glo™ Assay”. The protocol involves an incubation of the MAO A enzyme (BD Gentest™) with a luminogenic MAO substrate to produce an enzymatic product which is converted to luciferin by a coupled reaction. The released luciferin undergoes further transformation to generate light that is detected and measured. The amount of the light is directly proportional to the activity of MAO. Percent inhibition at several concentrations is established relative to the uninhibited control rate, and the IC50 (μg/mL) values are calculated. […] The MAO inhibition data for select compound of this invention are illustrated in the Table 2 below.

[3] = test system: human CD34+ bone marrow cells; assay: Myelosuppressive potential: bone marrow CD34+ cell growth inhibition, luminescence assay; type: cell-based; conditions: 9-10 days at 37° C., Linezolid value of side-by-side test in parenthesis; for IC50: Homo sapiens, CD34+ cell
Procedure: Myelosuppressive potential (hematopoietic or bone marrow toxicity) was evaluated using human CD34^+ bone marrow cells, generally following methods described by Leach in International Patent Publication No. WO 2006/097828. Thus, an oxazolidinone compound was incubated with fresh human bone marrow cells for 9-10 days at 37° C. in 5% CO2 atmosphere. At end of the incubation period, the bone marrow toxicity was accessed by measuring inhibition (IC50, μg/mL) of CD34^+ cell growth using a luminescence assay. Lower IC50 value indicates a higher myelosuppression potential with enhanced probability of undesired adverse effects in vivo, while a higher IC50 value indicates reduced bone marrow toxicity. The CD34^+ inhibition data for representative compounds of this invention are illustrated in the Table 2 below.

| SMILES | MIC [1] [µg/mL] | further results |
| --- | --- | --- |
| O=C1C=CN(c2c(F)cc(N3C[C@H](CO)OC3=O)c(F)c2F)CC1 [Example 1] | 4 (≈ 11.7 µM) |  |
| CC(=O)NC[C@H]1CN(c2cc(F)c(N3C=CC(=O)CC3)c(F)c2F)C(=O)O1 [Example 2] | 2 (≈ 5.22 µM) | IC50 [2]: 148 µM; IC50 [3]: 13.2 µg/mL (≈ 34.4 µM) |
| O=C1C=CN(c2c(F)cc(N3C[C@H](CNc4ccon4)OC3=O)c(F)c2F)CC1 [Example 5] | 1 (≈ 2.45 µM) | IC50 [2]: 30.1 µM; IC50 [3]: 15.7 µg/mL (≈ 38.4 µM) |
| Cc1cc(NC[C@H]2CN(c3cc(F)c(N4C=CC(=O)CC4)c(F)c3F)C(=O)O2)no1 [Example 6] | 4 (≈ 9.47 µM) |  |
| Cc1cn(C[C@H]2CN(c3cc(F)c(N4C=CC(=O)CC4)c(F)c3F)C(=O)O2)nn1 [Example 8] | 4 (≈ 9.82 µM) |  |
| CC(=O)NC[C@H]1CN(c2ccc(N3C=CC(=O)CC3)c(F)c2F)C(=O)O1 [Example 9] | 1 (≈ 2.74 µM) |  |
| Cc1cn(C[C@H]2CN(c3ccc(N4C=CC(=O)CC4)c(F)c3F)C(=O)O2)nn1 [Example 12] | 4 (≈ 10.3 µM) |  |
| COC(=O)NC[C@H]1CN(c2ccc(N3C=CC(=O)CC3)c(F)c2F)C(=O)O1 [Example 13] | 1 (≈ 2.62 µM) | IC50 [2]: 44.8 µM; IC50 [3]: 6.3 µg/mL (≈ 16.5 µM) |
| O=C1C=CN(c2ccc(N3C[C@H](COc4ccon4)OC3=O)c(F)c2F)CC1 [Example 16] | 4 (≈ 10.2 µM) |  |
| O=C1C=CN(c2cc(F)c(N3C[C@H](Cn4ccnn4)OC3=O)cc2F)CC1 [Example 18] | 4 (≈ 10.7 µM) |  |
| N#Cc1cn(C[C@H]2CN(c3cc(F)c(N4C=CC(=O)CC4)c(F)c3F)C(=O)O2)nn1 [Example 19] | 4 (≈ 9.56 µM) |  |
| Cn1nnnc1-c1ccc(-c2ccc(N3C[C@H](CO)OC3=O)c(F)c2F)cn1 [Example 22] | 1 (≈ 2.58 µM) |  |
| O=C1C=CN(c2ccc(N3C[C@H](Cn4ccnn4)OC3=O)cc2F)CC1 [Example 25, reference compound] |  | IC50 [2]: 5.04 µM; IC50 [3]: 2.6 µg/mL (≈ 7.28 µM) |

Continued, in another order:

| MIC [1] [µg/mL] | SMILES | further results |
| --- | --- | --- |
| 1 (≈ 2.54 µM) | O=C1C=CN(c2c(F)cc(N3C[C@H](Cn4ccnn4)OC3=O)c(F)c2F)CC1 [Example 3] |  |
| 2 (≈ 5.01 µM) | COC(=O)NC[C@H]1CN(c2cc(F)c(N3C=CC(=O)CC3)c(F)c2F)C(=O)O1 [Example 4] | IC50 [2]: 54.3 µM; IC50 [3]: 17.7 µg/mL (≈ 44.3 µM) |
| 2 (≈ 5.03 µM) | CCC(=O)NC[C@H]1CN(c2cc(F)c(N3C=CC(=O)CC3)c(F)c2F)C(=O)O1 [Example 7] |  |
| 2 (≈ 6.17 µM) | O=C1C=CN(c2ccc(N3C[C@H](CO)OC3=O)c(F)c2F)CC1 [Example 10] |  |
| 1 (≈ 2.66 µM) | O=C1C=CN(c2ccc(N3C[C@H](Cn4ccnn4)OC3=O)c(F)c2F)CC1 [Example 11] |  |
| 0.25 (≈ 0.64 µM) | O=C1C=CN(c2ccc(N3C[C@H](CNc4ccon4)OC3=O)c(F)c2F)CC1 [Example 14] |  |
| 2 (≈ 5.27 µM) | CCC(=O)NC[C@H]1CN(c2ccc(N3C=CC(=O)CC3)c(F)c2F)C(=O)O1 [Example 15] |  |
| 4 (≈ 10.9 µM) | CC(=O)NC[C@H]1CN(c2cc(F)c(N3C=CC(=O)CC3)cc2F)C(=O)O1 [Example 17] |  |
| 4 (≈ 9.72 µM) | O=C1C=CN(c2c(F)cc(N3C[C@H](Cn4cc(F)nn4)OC3=O)c(F)c2F)CC1 [Example 20] |  |
| 2 (≈ 4.55 µM) | Cn1nnc(-c2ccc(-c3cc(F)c(N4C[C@H](Cn5ccnn5)OC4=O)cc3F)cn2)n1 [Example 21] |  |
| 1 (≈ 2.25 µM) | COC(=O)NC[C@H]1CN(c2ccc(-c3ccc(-c4nnnn4C)nc3)c(F)c2F)C(=O)O1 [Example 23] |  |
| 2 (≈ 5.36 µM) | CC(=O)NC[C@H]1CN(c2cc(F)c(N3CCOCC3)c(F)c2F)C(=O)O1 [Example 26, reference compound] |  |
| 2 (≈ 5.93 µM) | CC(=O)NC[C@H]1CN(c2ccc(N3CCOCC3)c(F)c2)C(=O)O1 [Linezolid, linezolid, reference compound] | IC50 [2]: 11.3 µM; CD34 IC50 [3]: Range 7.9-14.0 μg/mL; CD34 IC50 ([3]; listed as Lin.): 14.0 µg/mL and 8.1 µg/mL; IC50 [3]: 7.9 µg/mL (≈ 23.4 µM) |

Source: patent publication US8178683B2, “Antimicrobial ortho-fluorophenyl oxazolidinones for treatment of bacterial infections” (Micurx Pharmaceuticals, Inc., priority 2007, dated 2012)
